Tests used:
[1] = Phase 1 plasma pharmacokinetics, CYP2D6 poor metabolizer cohort; assay type: in vivo, human; details: CYP2D6 poor metabolizers, single 10 mg, n = 7
Protocol: CYP2D6 poor metabolizer cohort.
CYP2D6 genotypes were determined at screening for all study participants; those identified as CYP2D6-PMs were excluded from the SAD and MAD cohorts but were invited to participate in the CYP2D6-PM cohort. The first individual in the CYP2D6-PM cohort was dosed after the SAD 25-mg cohort (FIG. 2). […] Nine participants were randomized (7:2) with a sentinel dosing group consisting of the first 2 participants treated.
Pharmacokinetic analyses. For all study groups, blood samples for PK assessment were obtained pre-dose, up to 12 times daily on day 1, and then at regular intervals throughout the study. Blood samples were collected according to the following schedule: SAD Cohorts: Day 1: pre-dose and 0.25, 0.5, 1, 1.5, 2, 2.5, 3, 4, 6, 8, 12, 16, 24, 36, 48, 72, 96, and 216 h post dose. MAD Cohorts (14-day Dosing): Day 1: pre-dose and 0.25, 0.5, 1, 1.5, 2, 2.5, 3, 4, 6, 8, and 12 h post dose; Days 2, 4, 5, 6, and 9: pre-dose (corresponding to trough samples following dosing on days 1, 3, 4, 5, and 8) and 1.5 h post dose; Days 3, 7, 8, 10, 11, 12, and 13: pre-dose (corresponding to trough samples following dosing on days 2, 6, 7, 9, 10, 11, and 12); Day 14: pre-dose and 0.25, 0.5, 1.5, 2, 2.5, 3, 4, 6, 8, 12, 16, 24, 36, 48, 72, and 168 h post dose. […]

[2] = system: patients with symptomatic obstructive HCM (oHCM) receiving disopyramide; experiment: Phase 2 trial in oHCM, Cohort 3: CK-274 in combination with disopyramide; assay type: in vivo, human
From the text: Cohort 3 included patients receiving disopyramide.
Body weight was ≥45 kg at screening; 4. […] Adequate acoustic windows for echocardiography; 6. Had LVOT-G during screening as follows for Cohorts 1 and 2: (a) resting gradient≥50 mmHg; or (b) resting gradient≥30 mmHg and <50 mmHg with post-Valsalva LVOT-G≥50 mmHg; or as follows for Cohort 3: persistent resting LVOT obstruction (≥30 mmHg) and provoked LVOT obstruction (≥50 mmHg); 7. Left ventricular ejection fraction (LVEF)≥60% at screening; 8. […] Taking stable doses of disopyramide for >4 weeks prior to screening (Cohort 3 only).
Patients up-titrated to Dose 2 if either of the following conditions were met on echocardiography: (1) resting LVOT-G≥30 mmHg and the biplane LVEF≥50%; or (2) resting LVOT-G<30 mmHg, post-Valsalva LVOT-G≥50 mmHg, and the biplane LVEF≥50%. Otherwise, the patient remains on Dose 1. If LVEF is <50% at Week 2, the patient was down-titrated to placebo.
Overall, treatment duration for each patient in the study was 10 weeks with an echocardiogram conducted 2 weeks after the last dose. Efficacy endpoints included resting and provoked LVOT gradients, NYHA class, and NT-proBNP.

CCc1nc(-c2ccc3c(c2)CC[C@H]3NC(=O)c2cnn(C)c2)no1 [aficamten, (R)—N-(5-(5-ethyl-1,2,4-oxadiazol-3-yl)-2,3-dihydro-1H-inden-1-yl)-1-methyl-1H-pyrazole-4-carboxamide]
CL/F, mean ± SD [1]: 3.6 ± 1.4 L/h
Moderate adverse events recorded ([2]; Cohort 3): six
New York Heart Association functional class ([2]; Cohort 3): improved in the majority of patients
Patients whose LVEF fell below the safety threshold of 50% ([2]; Cohort 3): no patients
Serious adverse events attributed to treatment ([2]; Cohort 3): no serious adverse events attributed to treatment
Average resting and post-Valsalva LVOT-G ([2]; Cohort 3, 5, 10, 15 mg, 10 weeks): substantial reductions
Patients with AEs related to study drug (per investigator) ([2]; Cohort 3, 13 patients): 2 (15.4) N (%)
Patients with TEAEs leading to drug interruption or termination ([2]; Cohort 3, 13 patients): 0 N (%)
Patients with TESAEs ([2]; Cohort 3, 13 patients): 0 N (%)
Patients with at least one TEAE ([2]; Cohort 3, 13 patients): 9 (69) N (%)
Patients with fatal TEAEs ([2]; Cohort 3, 13 patients): 0 N (%)
TEAE of LVEF <50% (Core Lab) ([2]; Cohort 3, 13 patients): 0 N (%)
Adverse events of asymptomatic atrial fibrillation ([2]; Cohort 3, patient with known prior history): One
Effect on LVOT-G compared with Cohort 1 patients (same CK-274 dose) ([2]; Cohort 3, patients treated with disopyramide): mostly attenuated

Source: patent US20250177357A1, “METHODS FOR TREATING HYPERTROPHIC CARDIOMYOPATHY” (priority 2021, published 2025)
